Assay results as given in patent US20220130493A1, “METHOD AND SYSTEMS FOR PHYTOMEDICINE ANALYTICS FOR RESEARCH OPTIMIZATION AT SCALE” (GBS Global BioPharma, Inc., priority 2020, published 2022).

How the values were obtained:
TRPV1 = experiment: Whole cell patch clamp electrophysiology of TRPV1 conductance; type: cell-based
Description: FIG. 25C provides data on the functional effects of terpenes at the nociceptive ion channel TRPV1.

[1] = in vivo; cited from earlier work

SMILES	TRPV1 conductance (TRPV1)	side effects [1]
C=CC(=C)CCC=C(C)C [myrcene]	activate TRPV1 conductance	–
CN1C[C@H](C(=O)N[C@]2(C)O[C@@]3(O)[C@@H]4CCCN4C(=O)[C@H](Cc4ccccc4)N3C2=O)C=C2c3cccc4[nH]cc(c34)C[C@H]21 [ergotamine]	–	nausea, vomiting and cardiovascular side effects
